Patent publication US10080811B2, “Diagnostic marker compounds and their use” (University of Leeds, priority 2012, dated 2018)

Legend:
C57BL/6J mice = conditions: IP injection
Protocol: After 24 hours mice were perfused transcardially with 0.9% saline followed by 4% paraformaldehyde. Brains, arteries, heart, liver kidneys were removed, post-fixed and […] sections were cut on a vibratome (Leica Microsystems, Germany) The sections were mounted on slides, dried at 4° C., cover slipped using vectashield mounting medium and examined using a Zeiss laser scanning confocal microscope (LSM 510).

SH-SY5Y cells = conditions: 500 μM H2O2 24 hours before, 24 hours exposure
Protocol: Cytoprotective effect tests were performed on SH-SY5Y cells that had previously been exposed to hydrogen peroxide for 24 hours.

Structure (SMILES) | blood brain barrier passage (labelling in the brain tissue) (C57BL/6J mice) | highest number of fluorescent peaks, brain tissue (C57BL/6J mice; 100 μM solution, 24 hours) [peaks per 100 μm^2 area] | highest number of fluorescent peaks, heart tissue (C57BL/6J mice; 100 μM solution, 24 hours) [peaks in a 100 μm^2 area] | highest number of fluorescent peaks, liver tissue (C57BL/6J mice; 100 μM solution, 24 hours) [peaks in a 100 μm^2 area] | highest number of fluorescent peaks, lung tissue (C57BL/6J mice; 100 μM solution, 24 hours) [peaks in a 100 μm^2 area] | uptake into hepatocytes in liver tissue (C57BL/6J mice; higher magnifications) | cytoprotective potency, comparison of the two nitrates (SH-SY5Y cells) | effect on hydrogen peroxide's cytotoxicity (SH-SY5Y cells; n=80)
O=[N+]([O-])[O-].O=[N+]([O-])[O-].O=[N+]([O-])[O-].[Eu+3] [europium nitrate] | cross the blood brain barrier | ≥ 20 | ≤ 1 | < 10 | ≤ 1 | had entered the hepatocytes | – | –
O=[N+]([O-])[O-].O=[N+]([O-])[O-].O=[N+]([O-])[O-].[Ce+3] [cerium nitrate] | – | – | – | – | – | – | more potent antioxidant-based cytoprotective agent compared to europium nitrate | significantly inhibiting hydrogen peroxide's cytotoxicity
